{"source": "patent US8858914B2", "about": "(Endocyte, Inc., priority 2002, dated 2014)", "key": {"M109 tumor nodules": {"test_system": "M109 tumor nodules", "test": "imaging of metastatic tumor nodules of M109 cell origin (ip or iv inoculation)", "assay_type": "in vivo, mouse", "source_text": "In order to test the ability of folate-fluorescein to facilitate detection of microscopic tumor nodules, metastatic tumors of M109 cell origin were induced by inoculation of cells either into the peritoneal cavity (ip) or femoral vein (iv) of the syngeneic mice. After allowing sufficient time for tumor growth, tumor loci were again imaged by intravenous administration of folate-fluorescein followed by laser excitation."}, "L1210 tumor nodules": {"test_system": "L1210 tumor nodules", "test": "imaging of metastatic L1210 lesions after iv inoculation", "assay_type": "in vivo, mouse", "source_text": "To further explore the ability of folate-fluorescein to image small metastatic lesions, L1210 cells were also inoculated intravenously into syngeneic mice and the various anatomical regions were again imaged as above. Since L1210 cells are lymphocytic in origin and relatively small in size, they are capable of forming tumor nodules throughout the body after iv injection, rather than becoming entrapped primarily in the lung capillary network. […] Further, the animal's spleen was almost entirely filled with minute tumor loci (FIG. 9a) and was consequently enlarged to roughly twice its normal size. Tumor nodules were also found in muscle tissue near the shoulder (FIG. 9b) and in the brain, spinal cord, and along the pleura."}, "[1]": {"test_system": "arthritic joints (folate receptor expressing macrophages)", "details": "rat paws", "source_text": "Targeting a photosensitizer to arthritic joints allow phototherapy to be applied to the arthritic joint while preventing toxicity to other tissues. […] One potential application of arthritis imaging is in the area of sport animal medicine. Race animals, such as dogs or horses, that have arthritis, could be diagnosed in an easy, inexpensive, and nonradioactive manner by using fluorescent imaging agents."}, "M109 and L1210 tumors": {"test_system": "M109 and L1210 tumors", "test": "whole-tissue fluorescence imaging of tumors vs adjacent normal tissue after iv injection", "assay_type": "in vivo, mouse", "details": "M109 (Balb/c) and L1210 (DBA) tumors, 2 h after iv injection, argon laser 488 nm", "method": "Whole-tissue fluorescent imaging is performed using the imaging system 110 shown in FIG. 2 including an argon laser 12 (Spectra-Physics, Mountain View, Calif.) operating at 488 nm with a total laser power of 200 mW reaching the 2 cm sample field of view 114. Fluorescence is detected by a colored CCD camera 116 such as a JAI CV-53200N manufactured by Edmund Industrial Optics, Barrington, N.J. with a sensing area of 768×494 pixels and a pixel size of […]. An f/5.6 152-457 mm 10× CCD zoom lens 118, also produced by Edmund Industrial Optics, Barrington, N.J., is used to collect fluorescence from the 2.0 cm×2.0 cm field of view 114. A band pass filter 120 with […] 80% T at 515-585 nm (Inter, Inc., Socorro, N.M.) is placed between the lens 118 and the CCD Camera 116 in order to reject laser light 20 and suppress tissue auto-fluorescence outside the fluorescein fluorescence band. The images are digitally acquired using SNAPPY software v. 4.0 manufactured by Play, Inc., Sacramento, Calif.\nThe light 20 of laser 12 is aimed via a plurality of mirrors 26 such that the light 20 passes through a diffusing lens 124 to illuminate the field of view 114 as shown in FIG. 2. […]\nIn fact, the differences in fluorescence intensity were readily apparent to the naked eye without the assistance of optical equipment as shown in the upper pictures of FIGS. 5a-c. […]"}, "[2]": {"test_system": "folate receptor-expressing tumor tissue", "protocol": "Tumors are induced subcutaneously by injecting 100 μL of cell culture solution containing approximately 500,000 M109 or L1210 cells. Imaging of mice with subcutaneous tumors is performed when the tumors reach approximately 200 mm^3 in size. For intraperitoneal (i.p.) tumors, approximately 500,000 M109 or L1210 cells are implanted in the peritoneal cavity and allowed to proliferate for approximately 2 weeks prior to analysis, which is sufficient time for tumor masses greater than 1 mm^3 to appear. Metastatic tumors are initiated by injection of approximately 200,000 M109 or L1210 cells into the femoral vein, and the imaging is performed two weeks afterwards in a variety of tissues.\nIn this case, the laser 12 is used to illuminate a 5 mm diameter area of a sample placed on an OLYMPUS BH-2 microscope 14 stage (Olympus, Inc., Melville, N.Y.). […] The fluorescence spectra are acquired using KESTREL Spec software (Princeton Instruments, Trenton, N.J.) with an integration time of 5 s, and fluorescence wavelengths are calibrated against neon lamp calibration lines.\nOnce again, light 28 from an argon laser 12 is directed via mirrors 26 so as to illuminate tissue on a stage 32 of microscope 14. Any fluorescence is captured by camera 34 via filter 35, similar to filter 120, and by the spectrograph 22. […]"}}, "data": [{"substance": "folate-γ-fluorescein [folate-fluorescein]", "values": [{"measurement": "fluorescence of tumor metastases compared to adjacent nonmalignant tissue", "setting": "M109 tumor nodules; intravenously inoculated mice, lungs", "value": "all tumor metastases fluoresced intensely"}, {"measurement": "size of metastatic tumor nodules readily observable", "setting": "M109 tumor nodules; lungs of intravenously inoculated mice, iv conjugate, laser excitation", "value": "smaller than 0.5 mm"}, {"measurement": "fluorescence of L1210 tumor nodules throughout the body", "setting": "L1210 tumor nodules; most tissues of the body, laser illumination", "value": "no nodules were identified that did not fluoresce"}, {"measurement": "detection of microscopic L1210 nodules in liver under laser illumination", "setting": "L1210 tumor nodules; under and top surface of the liver", "value": "clearly revealed under laser illumination"}, {"measurement": "contrast between arthritic and non-arthritic tissues", "setting": "[1]", "value": "discernable contrast"}, {"measurement": "fluorescence of tumors compared with adjacent normal tissues", "setting": "M109 and L1210 tumors", "value": "significantly more fluorescent than adjacent normal tissues"}, {"measurement": "fluorescence intensity of liver and muscle tissues, injected vs noninjected mice", "setting": "[2]; liver and muscle tissues not expressing the folate receptor", "value": "no difference in fluorescence intensity"}, {"measurement": "fluorescence of tumor tissue from injected mice relative to autofluorescence of noninjected controls", "setting": "[2]; tumor tissue, 2 h after injection of 8.7 μg, laser excitation", "value": "approximately fivefold"}]}]}
